Read-outs that look alike come from different tables or passages of the source.

In test [1] the test system is Septoria tritici. As to the kind of experiment: Microtest: activity against leaf blotch on wheat caused by Septoria tritici (Septtr). In kind it is cell-based. Particulars: relative growth vs active compound-free control (100%), 7 days after inoculation.
Test [2] concerns Pyriculana oryzae. In kind it is cell-based. Particulars: relative growth vs control (100%), 7 days after inoculation.
Test [3] deals with Pyrenophora teres. As to the kind of experiment: Microtiter test: activity against net blotch Pyrenophora teres on barley (Pyrnte). Format: cell-based. The method, then: M3 Activity against net blotch Pyrenophora teres on barley in the microtiter test ([…] stock solutions were mixed according to the ratio, pipetted onto a micro titer plate (MTP) and diluted with water to the stated concentrations. A spore suspension of Pyrenophora teres in an aqueous biomalt or yeast-bactopeptone-glycerine solution was then added. The plates were placed in a water vapor-saturated chamber at a temperature of 18° C. Using an absorption photometer, the MTPs were measured at 405 nm 7 days after the inoculation. The measured parameters were compared to the growth of the active compound-free control variant (100%) and the fungus-free and active compound-free blank value to determine the relative growth in % of the pathogens in the respective active compounds.

In test [4] the test system is Septoria tritici. As to the kind of experiment: Green house: curative control of leaf blotch on wheat caused by Septoria tritici (Septtr K7). Format: in vivo. Particulars: sprayed 7 days after inoculation, % diseased leaf area, untreated control 80. The method, then:
The spray solutions were prepared in several steps: The stock solution were prepared: a mixture of acetone and/or dimethylsulfoxide and the wetting agent/emulsifier Wettol, which is based on ethoxylated alkylphenoles, in a relation (volume) solvent-emulsifier of 99 to 1 was added to 25 mg of the compound to give a total of 5 ml. Water was then added to total volume of 100 ml. This stock solution was diluted with the described solvent-emulsifier-water mixture to the given concentration. G1 Curative control of leaf blotch on wheat caused by Septoria tritici (Septtr K7) Leaves of pot-grown wheat seedling were inoculated with an aqueous spore suspension of Septoria tritici. Then the trial plants were immediately transferred to a humid chamber at 18-22° C. and a relative humidity close to 100%. After 4 days the plants were transferred to a chamber with 18-22° C. and a relative humidity close to 70%. Seven days after inoculation the plants were sprayed to run-off with an aqueous suspension of the active compound or their mixture, prepared as described. Then the plants were transferred back to the chamber with 18-22° C. and a relative humidity close to 70%. After 4 weeks the extent of fungal attack on the leaves was visually assessed as % diseased leaf area.

As to `COC(Cn1cncn1)c1ccc(Oc2ccc(Cl)cc2)cc1Cl` (stereo not shown), the “Growth 0 (%) at 0.002 ppm Septtr” value in test [1] was found to be 72%.
Take `CC(O)(Cn1cncn1)c1ccc(Oc2ccc(Cl)cc2)cc1Cl` (stereo not shown): the “Growth (%) at 2 ppm Pyrior” value in test [2] is given as 23%. Further, the “Growth (%) at 8 ppm Pymte” value in test [3] is 62%.
Take `COC(Cn1cncn1)(c1ccc(Oc2ccc(Cl)cc2)cc1Cl)C1CC1` (stereo not shown) [I-1, 1-[2-[2-chloro-4-(4-chlorophenoxy)phenyl]-2-cyclopropyl-2-methoxy-ethyl]-1,2,4-triazole]: the “Growth 0 (%) at 0.002 ppm Septtr” value in test [1] came to 10%. For the same compound, in test [2], the “Growth (%) at 0.5 ppm Pyrior” value was 21% and the “Growth (%) at 2 ppm Pyrior” value was 0%. In test [3] (relative growth vs control (100%), 7 days after inoculation), the “Growth (%) at 8 ppm Pymte” value amounted to 12%. For the same compound, in test [4], the “Disease (%) at 250 ppm Septtr K7” value worked out at 1%.
For `CCC(Cn1cncn1)(OC)c1ccc(Oc2ccc(Cl)cc2)cc1Cl` (stereo not shown), the “Growth (%) at 0.5 ppm Pyrior” value in test [2] amounted to 47%. Also, the “Growth (%) at 8 ppm Pymte” value in test [3] is given as 39%.
